# Experimental data published in patent US20110039779A1, “IGF-1R BINDING PROTEINS AND ANTAGONISTS” (priority 2007, published 2011).
# “And” between values parts separate entries of the source, which are not always exact repeats. Identical values can stand only once. Like-named read-outs stand apart in the source and are kept apart here.
# Columns and labels:
# [1] = tested on: SW480 cells; format: cell-based
# Procedure: For cell growth/density studies, a mitochondrial activity assay was used, as exemplified by the following. Cells (SW480, MCF-7S8) were propagated in complete medium (DME: F12, 10% FCS (SW 480) or 5% FCS (MCF-7S8, P/S)), trypsinized, and seeded in 96 well plates as 10,000 cells/well in medium with 0.5% FCS. All wells in the periphery were omitted and only filled with medium. […] All treatments are made in triplicates. […] Treatment was continued for 48 hours (SW480 cells) or 72 hours (MCF-7S8 cells) before quantification of the cell density. Media was exchanged each day. Media and peptides were diluted in DMSO. When measuring cell density, the volume of each well was adjusted to […] Pre-diluted WST-1 (1 ml+1.5 ml DME:F12) was added as 25 μL to each well including background samples. Three wells with media only served as background controls. The cells were incubated for 90 min protected against light in an incubator.
# [2] = molecular target: T1, purified HIGF-1R (Homo sapiens, UniProt P08069); experiment: IGF-1R activation kinase assay; format: biochemical; settings: FIG. 2
# T1 construct: HIGF-1R was purified from a cell culture of BHK cells stably transfected with IGF-1R cDNA; made in house; host or cells: BHK cells stably transfected with IGF-1R cDNA
# T1 sequence (P08069 31-736 limits assumed): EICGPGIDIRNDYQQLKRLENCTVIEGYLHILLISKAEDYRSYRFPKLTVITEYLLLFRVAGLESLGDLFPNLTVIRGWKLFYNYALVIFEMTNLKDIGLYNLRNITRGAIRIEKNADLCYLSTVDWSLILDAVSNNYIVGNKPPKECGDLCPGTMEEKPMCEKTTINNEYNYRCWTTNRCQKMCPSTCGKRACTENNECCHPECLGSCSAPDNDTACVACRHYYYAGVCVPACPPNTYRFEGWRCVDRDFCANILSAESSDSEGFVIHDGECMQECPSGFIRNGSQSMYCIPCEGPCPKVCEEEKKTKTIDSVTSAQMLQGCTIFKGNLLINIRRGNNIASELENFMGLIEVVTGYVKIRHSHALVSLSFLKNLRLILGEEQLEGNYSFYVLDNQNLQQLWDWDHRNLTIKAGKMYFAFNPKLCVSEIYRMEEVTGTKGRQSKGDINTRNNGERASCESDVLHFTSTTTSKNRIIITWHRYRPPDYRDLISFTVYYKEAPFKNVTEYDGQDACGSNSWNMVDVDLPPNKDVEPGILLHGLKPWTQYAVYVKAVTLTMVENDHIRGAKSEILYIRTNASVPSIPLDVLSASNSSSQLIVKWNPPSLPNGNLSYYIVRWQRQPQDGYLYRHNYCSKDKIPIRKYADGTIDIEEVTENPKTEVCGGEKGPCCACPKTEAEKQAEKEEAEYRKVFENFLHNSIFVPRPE
# T1 sequence (P08069 741-1367 limits assumed): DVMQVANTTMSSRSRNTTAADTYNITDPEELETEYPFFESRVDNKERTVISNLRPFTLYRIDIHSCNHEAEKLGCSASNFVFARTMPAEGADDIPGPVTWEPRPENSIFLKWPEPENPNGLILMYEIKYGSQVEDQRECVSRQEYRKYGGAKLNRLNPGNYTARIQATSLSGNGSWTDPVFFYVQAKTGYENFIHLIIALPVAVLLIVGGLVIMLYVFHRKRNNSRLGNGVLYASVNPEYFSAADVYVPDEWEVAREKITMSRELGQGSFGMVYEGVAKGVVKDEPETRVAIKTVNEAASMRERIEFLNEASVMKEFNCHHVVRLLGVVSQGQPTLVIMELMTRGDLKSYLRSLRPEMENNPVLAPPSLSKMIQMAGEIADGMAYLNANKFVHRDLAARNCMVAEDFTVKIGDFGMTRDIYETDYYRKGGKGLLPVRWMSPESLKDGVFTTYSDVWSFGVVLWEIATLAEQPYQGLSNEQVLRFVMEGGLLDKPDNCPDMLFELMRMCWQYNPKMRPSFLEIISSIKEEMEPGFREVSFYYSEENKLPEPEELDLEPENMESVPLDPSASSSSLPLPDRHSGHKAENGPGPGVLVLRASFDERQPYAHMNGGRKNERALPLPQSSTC
# Procedure: For determining IGF-1R activation with test peptides, a kinase assay, generally using the following conditions was employed. A solution of each test peptide in kinase buffer (Hepes 100 mM (pH 8.0), MgCl2 8 mM, MnCl2 6 mM, Triton X100 0.1% v/v, BSA 0.2% w/v, 4 μg/ml IRS-1 peptide (Biotin-[…] in PBS+1 mg/ml)) was prepared. Samples were mixed in a microtiter plate in triplicate. 50 μl 2× kinase buffer was added into each well. […] Volume was adjusted to 88 μL, before addition of purified HIGF-1R (2 μl/well). Plates were shaken and incubated for 50 min. at room temperature (RT). DTT and 10 μl/well ATP were added and the wells incubated for 10 min. before stopping the reaction by adding 10 μl stop-buffer (50 mM EDTA (pH 8.0))/well and shaking. The samples were then transferred to streptavidin coated plates and incubated for 1 hour at RT. The coated plates were aspirated and washed 3 times with TBS-T. […] P-tyr Ab-PO (Phosphotyrosine-RC20:HRPO (1:1000) in TBS-T) was added and each plate was incubated for 30 min at RT. The plates were aspirated and washed 3 times with TBS-T. 100 μl TMB-One-substrate (Kem-En-Tec Diagnostics A/S—Denmark) (preheated to RT) was then added and the plates further incubated for approximately 20 min at RT. This reaction was stopped by adding 10 μl H2SO4 and the plates were read in an ELISA-reader at […] within 5-10 min. thereafter. […]
# [3] = molecular target: MCF7 cells (Homo sapiens, UniProt P08069); experiment: antagonism assay in starved MCF7 cells, luminescence viability, 72 hrs; format: cell-based; settings: Table 9
# Chain of MCF7 cells (P08069 31-736): as the sequence (P08069 31-736 limits assumed) above
# Procedure: Additional binding and antagonism assays using candidate peptides were performed. […] Cell viability was determined by luminescence assay and IC50 was calculated using standard techniques.
# [4] = tested on: MAPK42; experiment: downstream signaling in L6 cells: MAPK42; format: cell-based; settings: 3 nM IGF-1, read-out: MAPK42, IC50 for down regulation of the stimulation to the basal level
# Procedure: (§1) The tyrosine phosphorylation of IRS signaling (the 180 kDa band on a tyrosine phosphor Western blot) as well as activation of effectors MAPK 44 and 42 and PKB were analyzed by using antibodies specific for their active forms using methods substantially similar to those described in Example 14 of the '246 PCT application.
# (§2) The effect of select peptides on downstream signaling (MAPK44, MAPK42, PKB/Akt, IRS-1, and IGF-1R) was also measured by studying the signaling in L6 cells predominantly expressing IGF-1R and very limited insulin receptors. […] The antagonistic effect of the peptides can be seen to affect all the downstream signaling from the IGF-1R.
# [5] = tested on: IRS-1; experiment: downstream signaling: IRS-1 tyrosine phosphorylation; format: cell-based; settings: L6 cells; 3 nM IGF-1; read-out: IRS-1, IC50 for down regulation of the stimulation to the basal level
# Procedure: as §1, §2
# [6] = tested on: MAPK44; experiment: downstream signaling in L6 cells: MAPK44; format: cell-based; settings: 3 nM IGF-1, read-out: MAPK44, IC50 for down regulation of the stimulation to the basal level
# Procedure: as §1, §2
# [7] = tested on: IGF-IR; experiment: downstream signaling in L6 cells: IGF-IR; format: cell-based; settings: 3 nM IGF-1, read-out: IGF-IR, IC50 for down regulation of the stimulation to the basal level
# Procedure: as §1, §2
# [8] = first value of the cell: concentration needed to blunt the effect of 10 nM IGF-1, cells in words only = effect as reported, 48 hours
# [9] = read-out: IC50, inhibition of IGF-1 (10 nM)-induced proliferation of SW480 cells, experiment 13262-015
# [10] = read-out: IC50, inhibition of IGF-1 (10 nM)-induced proliferation of SW480 cells, experiment 13262-016
# [11] = read-out: IC50 in SW480 (M) in presence of IGF-1/alone: in presence of IGF-1, first value of the cell: concentration needed to blunt the effect of 10 nM IGF-1, cells in words only = effect as reported, 48 hours
# [12] = read-out: IC50 in SW480 (M) in presence of IGF-1/alone: alone, second value of the cell: concentration needed to inhibit basal level in 0.5% FCS
molecule,measurement,setting,value
CC[C@H](C)[C@H](NC(=O)[C@H](CS)NC(=O)[C@H](CCCNC(=N)N)NC(=O)[C@H](CCCNC(=N)N)NC(=O)[C@H](CCCNC(=N)N)NC(=O)[C@H](Cc1c[nH]c2ccccc12)NC(=O)CNC(=O)[C@H](Cc1ccccc1)NC(=O)[C@H](CO)NC(=O)[C@@H]1CCCN1C(=O)[C@@H](NC(=O)CNC(=O)[C@H](CC(C)C)NC(=O)[C@H](CO)NC(=O)[C@H](CC(C)C)NC(=O)[C@H](CC(=O)O)NC(=O)[C@H](CC(C)C)NC(=O)[C@H](CC(C)C)NC(=O)[C@H](CS)NC(=O)CNC(=O)[C@H](Cc1ccc(O)cc1)NC(=O)[C@H](Cc1ccccc1)NC(=O)[C@@H]1CCC(=O)N1)C(C)C)C(=O)N[C@H](C(=O)N[C@@H](C)C(=O)O)[C@@H](C)O [Peptide F138P],IC50,[1],5e-07 M
same,"inhibition of basal growth of SW480, doses",[1]; without IGF-1,> 100 nM
Ac-ESDVWAQPQRRNDWPGYHWLSR [Peptide F288],IC50 in SW480 (M) in presence of IGF-1/alone: in presence of IGF-1,[1]; [8],No effect
Ac-SFYSCLESLVQGPAEKSRGQWEGCRX [Peptide F369],IC50,[1]; [9],> 1e-05 M
same,IC50,[1]; [10],> 1e-05 M
Ac-VEGROLFYDLLROLLAMRRNG [Peptide F235],inhibition of IGF-1R kinase activation by IGF-1,[2],completely inhibit
same,IC50 in SW480 (M) in presence of IGF-1/alone: in presence of IGF-1,[1]; [8],No effect
Ac-VGRASGPPENFYDWPGRQLSLQSGEQRR [Peptide F287],IC50 in SW480 (M) in presence of IGF-1/alone: in presence of IGF-1,[1]; [8],No effect
DMGDVECEDPFYDWFACQVRDTEFDE [Peptide F115],IC50 in SW480 (M) in presence of IGF-1/alone: in presence of IGF-1,[1]; [8],No effect
EERATPRWRGYEWFDAQVERE [Peptide F211],IC50 in SW480 (M) in presence of IGF-1/alone: in presence of IGF-1,[1]; [8],No effect
EFGTGYGGDGGGYWSGYEWLAW [Peptide F207],IC50 in SW480 (M) in presence of IGF-1/alone: in presence of IGF-1,[1]; [8],No effect
same,IC50,[1]; [11],2e-06 M
EFLTRLLERLGLSWERGEAGGPYAQAE [Peptide F175],IC50 in SW480 (M) in presence of IGF-1/alone: in presence of IGF-1,[1]; [8],No effect
EFSGFCMGLERLSOVSLGYCGAGOGGE [Peptide F169],IC50,[1]; [11],2e-06 M
EGLLFCKQLFTLAGLQPEAGCVSSSRE [Peptide F165],IC50 in SW480 (M) in presence of IGF-1/alone: in presence of IGF-1,[1]; [8],No effect
EGRVDDAFYENFERQLGE [Peptide F213],IC50 in SW480 (M) in presence of IGF-1/alone: in presence of IGF-1,[1]; [8],No effect
same,IC50,[1]; [11],2e-06 M
EIQRDCQGRPCGDAANFYDWFVQQDSE [Peptide F268],IC50 in SW480 (M) in presence of IGF-1/alone: in presence of IGF-1,[1]; [8],No effect
EISFRCQLFVLAGMHPCPVDVGGEGFE [Peptide F170],IC50 in SW480 (M) in presence of IGF-1/alone: in presence of IGF-1,[1]; [8],No effect
ELQGFCELLATVTGVTGLGCLDYQPIE [Peptide F202],IC50 in SW480 (M) in presence of IGF-1/alone: in presence of IGF-1,[1]; [8],No effect
same,IC50,[1]; [11],> 1e-05 M
same,IC50 in SW480 (M) in presence of IGF-1/alone: alone,[1]; second value of the cell: concentration needed to inhibit basal level in 0.5% FCS,no effect
ELSFACLLSQLSGVVLPDCLLGEDE [Peptide F201],IC50 in SW480 (M) in presence of IGF-1/alone: in presence of IGF-1,[1]; [8],No effect
ENRSGELWEGYGWFNMQVRGE [Peptide F212],IC50 in SW480 (M) in presence of IGF-1/alone: in presence of IGF-1,[1]; [8],No effect
EVDRDCQARPCGDAANFYDWFGQQGTE [Peptide F269],IC50,[1]; [12],> 1e-05 M
same,IC50,[1]; [11],5e-07 M
EVTSAGQWEGYEWFLGALHAE [Peptide F210],IC50 in SW480 (M) in presence of IGF-1/alone: in presence of IGF-1,[1]; [8],No effect
FFYRCLSRLLGGOLGSRLGLSCIGD [Peptide F139],IC50 in SW480 (M) in presence of IGF-1/alone: in presence of IGF-1,[1]; [8],Antagonistic
GIISQSCPESFYDWFAGQVSDPWWCW-Lig [Peptide F116],IC50 in SW480 (M) in presence of IGF-1/alone: in presence of IGF-1,[1]; [8],No effect
GSLDESFYDWFERQLGKK-Lig [Peptide F118],IC50 in SW480 (M) in presence of IGF-1/alone: in presence of IGF-1,[1]; [8],No effect
GSLDESFYRWFERQLEGGSGGSGLEQERAGTWCENSGRGCLH [Peptide F156],IC50 in SW480 (M) in presence of IGF-1/alone: in presence of IGF-1,[1]; [8],No effect
GVRAMSFYDALVSVLGLGPSG [Peptide F157],IC50 in SW480 (M) in presence of IGF-1/alone: in presence of IGF-1,[1]; [8],No effect
NFYGCLLDLSLGVPSFGWRRRCITA [Peptide F408],Activity,[3],Antagonist
QFYGCLLDLSLGVPSPGWRRRCITA [Peptide F393],IC50,"[1]; read-out: IC50, inhibition of IGF-1 (10 nM)-induced proliferation of SW480 cells, experiment 13262-027",1e-06 M
same,IC50,"[1]; read-out: IC50, inhibition of IGF-1 (10 nM)-induced proliferation of SW480 cells, experiment 13262-029",1e-06 M
RQWDCRGRPCGDAESFYEWFDQQRS [Peptide F264],IC50,[1]; [12],> 1e-05 M
same,IC50,[1]; [11],> 1e-05 M
SAAQLFFQESFYDWFLRQVAESSQPN [Peptide F162],IC50 in SW480 (M) in presence of IGF-1/alone: in presence of IGF-1,[1]; [8],No effect
SACQFDCHENFYDWFAROVSGOAAYG [Peptide F161],IC50 in SW480 (M) in presence of IGF-1/alone: in presence of IGF-1,[1]; [8],No effect
SFYDCLLDLSIGGPSSDWRRRCITA [Peptide F441],Activity,[3],Antagonist
SFYSCLESLVAGPAEKSRGQWEGCRK [Peptide F259],inhibition of IGF-1R kinase activation by IGF-1,[2],completely inhibit
same,IC50,[1]; [11],2e-06 M
SFYSCLESLVKRPTERSRGQWVGCR [Peptide F320],IC50,[4],1000 nM
same,IC50 in SW480 (M) in presence of IGF-1/alone: in presence of IGF-1,[1]; [8],No effect
same,IC50,[5],> 2000 nM
same,IC50,[6],1000 nM
same,IC50,[7],2000 nM and > 1000 nM
SFYSCLESLVNGGAERSEGOWEGCR [Peptide F113],IC50,[1]; [9],> 1e-05 M
same,IC50,[1]; [10],> 1e-05 M
SFYSCLESLVNGPAEKSRGQWDGCR [Peptide F249],IC50,[1]; [12],> 1e-05 M
same,IC50,[1]; [11],> 1e-05 M
SFYSCLESLVTGPAEKSRGQWEGCRK [Peptide F292],IC50,[1]; [12],1e-06 M
same,IC50,[1]; [11],1e-07 M
SFYSCLGSLLTGAPQPIRGAWDRCR [Peptide F144],IC50 in SW480 (M) in presence of IGF-1/alone: in presence of IGF-1,[1]; [8],No effect
VEGRGLFYDLLRQLLARRQNG [Peptide F158],IC50 in SW480 (M) in presence of IGF-1/alone: in presence of IGF-1,[1]; [8],No effect
VQDDCRGRPCGDADSFYEWFDQQAS [Peptide F263],IC50,[1]; [12],> 1e-06 M
same,IC50,[1]; [11],> 1e-06 M
